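Grown in 96-well plates, cells were treated for 48 hours with each compound at five concentrations. Insufficient inhibition: endpoint recorded as highest concentration tested. GI50: concentration for 50% inhibition of growth. TGI: concentration producing complete growth inhibition.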
Assays:
Test in all cases: growth of human tumour cells (NCI), 48 h
[1] = system: NCI-H522 lung
[2] = system: SK-OV-3 ovarian
[3] = system: NCI-H226 lung
[4] = system: HT29 colon
[5] = system: ACHN renal
[6] = system: KM12 colon
[7] = system: A549 NSCLC
[8] = system: SK-MEL-5 melanoma
[9] = system: BT-549 breast
[10] = system: NCI/ADR-RES ovarian
[11] = system: DU-145 prostate

Work on `O=c1c2cc(S(=O)(=O)O)ccc2nc(COc2ccc(Oc3ccc(Cl)cc3Cl)cc2)n1-c1ccc(Cl)cc1Oc1c(Cl)cccc1Cl` yielded a TGI [1] of 48.4 µM, a TGI [2] of 63.2 µM and a TGI [3] of 49.6 µM. For the same molecule, the TGI [4] was 39.9 µM, the TGI [5] was 68.5 µM and the TGI [6] was over 100 µM. It also gave a TGI [7] of 72.1 µM, a TGI [8] of 32.1 µM and a TGI [9] of 61.1 µM. For the same molecule, the TGI [10] was 77.4 µM and the TGI [11] was over 100 µM.
Work on `CC(=O)OCCOCn1cnc2c(Cl)nc(Cl)nc21` yielded a TGI [1] of 4.07 µM, a TGI [3] of 50.6 µM and a TGI [4] of 32.9 µM. It also gave a TGI [5] of 30.6 µM, a TGI [6] of 44.1 µM and a TGI [8] of 33 µM. The TGI [9] was 36.4 µM, the TGI [10] was 57.5 µM and the TGI [11] was 36.5 µM.
`Cc1ccc(NC(=S)N/N=C(/c2ccccc2)c2ccccn2)cc1` gave a TGI [1] of 24.4 µM, a TGI [2] of 9.29 µM and a TGI [3] of 2.07 µM. The TGI [4] was 20.3 µM, the TGI [5] was 10.3 µM and the TGI [6] was 13.4 µM. The TGI [7] was 15.7 µM, the TGI [8] was 5.08 µM and the TGI [9] was 19.1 µM. It also gave a TGI [10] of over 80.2 µM and a TGI [11] of 18.8 µM.
`CC1ON2CCCC2[C@H]1C(=O)N1C2CC3CCC2(CS1(=O)=O)C3(C)C` (some centres undefined) showed a TGI [1] of over 100 µM, a TGI [2] of over 100 µM and a TGI [3] of over 100 µM. The TGI [4] was over 100 µM, the TGI [5] was over 100 µM and the TGI [6] was over 100 µM. The TGI [7] was over 100 µM, the TGI [8] was over 100 µM and the TGI [9] was over 100 µM. For the same molecule, the TGI [10] was over 100 µM and the TGI [11] was over 100 µM.
`N#Cc1nc(C2=C(Cl)c3ccccc3OC2)[nH]c1C#N` gave a TGI [2] of over 100 µM, a TGI [4] of 41.5 µM and a TGI [5] of over 100 µM. It also gave a TGI [6] of 71.9 µM, a TGI [7] of over 100 µM and a TGI [8] of 51.1 µM. It also gave a TGI [9] of 48 µM and a TGI [10] of over 100 µM.
`Cc1ccc(NC(=O)c2cccc(OP(=O)(O)Nc3ccc(C)cc3)c2)cc1` was tested, and the TGI [1] was over 100 µM, the TGI [2] was over 100 µM and the TGI [3] was over 100 µM. The TGI [4] was over 100 µM, the TGI [5] was over 100 µM and the TGI [6] was over 100 µM. It also gave a TGI [7] of over 100 µM, a TGI [8] of over 100 µM and a TGI [9] of over 100 µM. The TGI [10] was over 100 µM and the TGI [11] was over 100 µM.
Molecule `Cc1cc(=O)n2nc(CN3CCCCC3)sc2n1` has a TGI [1] of over 100 µM, a TGI [2] of over 100 µM and a TGI [3] of over 100 µM. It also gave a TGI [4] of over 100 µM, a TGI [5] of over 100 µM and a TGI [6] of over 100 µM. For the same molecule, the TGI [7] was over 100 µM, the TGI [8] was over 100 µM and the TGI [9] was over 100 µM. The TGI [10] was over 100 µM and the TGI [11] was over 100 µM.
Work on `COc1cc(OC)c2c(=O)c(OC)c(-c3ccc4c(c3)OCO4)oc2c1` yielded a TGI [1] of 92.3 µM, a TGI [2] of 71.7 µM and a TGI [3] of over 100 µM. The TGI [4] was over 100 µM, the TGI [5] was over 100 µM and the TGI [6] was over 100 µM. It also gave a TGI [7] of over 100 µM, a TGI [8] of over 100 µM and a TGI [9] of over 100 µM. It also gave a TGI [10] of over 100 µM and a TGI [11] of over 100 µM.
`O=C(O)[C@@H]1CSCN1C(=O)[C@@H]1CCC(=S)N1` was tested, and the TGI [1] was over 100 µM, the TGI [2] was over 100 µM and the TGI [3] was over 100 µM. The TGI [4] was over 100 µM, the TGI [5] was over 100 µM and the TGI [6] was over 100 µM. It also gave a TGI [7] of over 100 µM, a TGI [8] of over 100 µM and a TGI [9] of over 100 µM. It also gave a TGI [10] of over 100 µM and a TGI [11] of over 100 µM.
`CN(/N=C/c1ccc(OCc2cccc(COc3ccc(C=O)cc3)n2)cc1)c1cnn(-c2ccc(Cl)cc2Cl)c(=O)c1Cl` showed a TGI [1] of over 100 µM, a TGI [3] of over 100 µM and a TGI [4] of over 100 µM. It also gave a TGI [5] of over 100 µM, a TGI [6] of over 100 µM and a TGI [7] of over 100 µM. For the same molecule, the TGI [8] was over 100 µM, the TGI [9] was over 100 µM and the TGI [10] was over 100 µM. It also gave a TGI [11] of over 100 µM.
Molecule `CC12CCC([C@H](C(O)C3CCCCC3)C1=O)C2(C)C` (some centres undefined) has a TGI [1] of over 100 µM, a TGI [2] of over 100 µM and a TGI [3] of over 100 µM. For the same molecule, the TGI [5] was over 100 µM, the TGI [6] was over 100 µM and the TGI [8] was over 100 µM. It also gave a TGI [9] of over 100 µM, a TGI [10] of over 100 µM and a TGI [11] of over 100 µM.
With `CCOP(=O)(O)C1C(CO)OC(n2ccc(=O)[nH]c2=O)C1O` (centres undefined) the TGI [1] was over 100 µM, the TGI [3] was over 100 µM and the TGI [4] was over 100 µM. It also gave a TGI [5] of over 100 µM, a TGI [6] of over 100 µM and a TGI [7] of over 100 µM. The TGI [8] was over 100 µM and the TGI [9] was over 100 µM.
`COc1ccc(O)c(/C(C)=N/NC(=S)N(C)C)c1` showed a TGI [1] of over 100 µM, a TGI [2] of over 100 µM and a TGI [3] of over 100 µM. It also gave a TGI [4] of over 100 µM, a TGI [5] of over 100 µM and a TGI [6] of over 100 µM. It also gave a TGI [7] of over 100 µM, a TGI [8] of over 100 µM and a TGI [9] of over 100 µM. For the same molecule, the TGI [10] was over 100 µM and the TGI [11] was over 100 µM.
Molecule `Cc1[nH]n(C2=NCCN2)c(=O)c1Cc1ccccc1` has a TGI [1] of over 100 µM, a TGI [2] of over 100 µM and a TGI [3] of over 100 µM. The TGI [4] was over 100 µM, the TGI [5] was over 100 µM and the TGI [6] was over 100 µM. It also gave a TGI [7] of over 100 µM, a TGI [8] of over 100 µM and a TGI [9] of over 100 µM. The TGI [10] was over 100 µM.
`O=C(N/N=C\c1cccc(O)c1)c1ccncc1` was tested, and the TGI [1] was over 100 µM, the TGI [4] was over 100 µM and the TGI [5] was over 100 µM. For the same molecule, the TGI [6] was over 100 µM, the TGI [7] was over 100 µM and the TGI [9] was over 100 µM. The TGI [10] was over 100 µM and the TGI [11] was over 100 µM.
`CCNc1cc2c(cc1O)CC[C@@H]1[C@@H]2CC[C@]2(C)[C@@H](O)CC[C@@H]12` showed a TGI [1] of 11.8 µM, a TGI [2] of over 39 µM and a TGI [3] of 21.6 µM. The TGI [4] was 33.7 µM, the TGI [5] was 22 µM and the TGI [6] was 22.4 µM. It also gave a TGI [7] of 54.6 µM, a TGI [8] of 11.8 µM and a TGI [9] of 43.3 µM. It also gave a TGI [10] of 20.9 µM, a GI50 [11] of 3.84 µM and a TGI [11] of 20.5 µM.
In the case of `COc1ccc(N2C(=O)c3cc(C)cnc3S2(=O)=O)cc1`, the TGI [1] is reported as over 100 µM, the TGI [2] is reported as over 100 µM and the TGI [3] is reported as over 100 µM. It also gave a TGI [4] of over 100 µM, a TGI [5] of over 100 µM and a TGI [6] of over 100 µM. For the same molecule, the TGI [7] was over 100 µM, the TGI [8] was over 100 µM and the TGI [9] was over 100 µM. It also gave a TGI [10] of over 100 µM and a TGI [11] of over 100 µM.
With `O=C1C(Cl)C(c2cccc(Cl)c2)N1c1ccc(-n2c(=S)[nH]c3ccccc3c2=O)cc1` (centres undefined) the TGI [1] was 31.3 µM, the TGI [2] was 72.5 µM and the TGI [3] was 73.8 µM. The TGI [4] was 43.3 µM, the TGI [5] was 48.8 µM and the TGI [6] was over 100 µM. It also gave a TGI [7] of 81.5 µM, a TGI [8] of 31.4 µM and a TGI [9] of over 100 µM. For the same molecule, the TGI [10] was 70.8 µM and the TGI [11] was over 100 µM.
`CCN(CC)CC(=O)O[C@]1(CC)C(=O)OCc2c1cc1n(c2=O)Cc2cc3ccccc3nc2-1` showed a TGI [1] of 1.44 µM, a TGI [3] of 0.23 µM and a TGI [5] of 0.146 µM. It also gave a TGI [6] of 0.862 µM, a TGI [7] of 2.37 µM and a TGI [8] of 0.171 µM. For the same molecule, the TGI [9] was 1.93 µM, the TGI [10] was 0.165 µM and the TGI [11] was 0.21 µM.
With `CNc1nc2n(CCO)c(-c3ccccc3)c(-c3ccccc3)nc-2c(=O)n1` the TGI [1] was over 50 µM, the TGI [2] was over 50 µM and the TGI [3] was over 50 µM. It also gave a TGI [4] of over 50 µM, a TGI [5] of over 50 µM and a TGI [6] of over 50 µM. The TGI [7] was over 50 µM, the TGI [8] was over 50 µM and the TGI [9] was over 50 µM. For the same molecule, the TGI [10] was over 50 µM and the TGI [11] was over 50 µM.

Reference: PubChem BioAssay (NCI)
